The subject of data set [1] is lambs with acute pulmonary hypertension. To be noted: cited from earlier work; for pulmonary vasodilation / transpulmonary cGMP release / effect on mean arterial pressure / systemic arterial oxygenation: inhaled microparticles; for pulmonary vasodilation / transpulmonary cGMP release: U-46619-induced pulmonary hypertension; for effect on pulmonary vasodilation induced by iNO: BAY 41-8543 inhaled microparticles, ODQ intravenous.

The next data set concerns obese mice. To be noted: cited from earlier work.
The test system of another data set is NO-deficient rats. The following applies: cited from earlier work.
The target of data set [2] is T1, human recombinant soluble guanylate cyclase enzyme α1β1 (Homo sapiens, UniProt Q02108+Q02153).
T1 construct: purchased Enzo Life Sciences ALX-201-177
T1 sequence (Q02108 1-690): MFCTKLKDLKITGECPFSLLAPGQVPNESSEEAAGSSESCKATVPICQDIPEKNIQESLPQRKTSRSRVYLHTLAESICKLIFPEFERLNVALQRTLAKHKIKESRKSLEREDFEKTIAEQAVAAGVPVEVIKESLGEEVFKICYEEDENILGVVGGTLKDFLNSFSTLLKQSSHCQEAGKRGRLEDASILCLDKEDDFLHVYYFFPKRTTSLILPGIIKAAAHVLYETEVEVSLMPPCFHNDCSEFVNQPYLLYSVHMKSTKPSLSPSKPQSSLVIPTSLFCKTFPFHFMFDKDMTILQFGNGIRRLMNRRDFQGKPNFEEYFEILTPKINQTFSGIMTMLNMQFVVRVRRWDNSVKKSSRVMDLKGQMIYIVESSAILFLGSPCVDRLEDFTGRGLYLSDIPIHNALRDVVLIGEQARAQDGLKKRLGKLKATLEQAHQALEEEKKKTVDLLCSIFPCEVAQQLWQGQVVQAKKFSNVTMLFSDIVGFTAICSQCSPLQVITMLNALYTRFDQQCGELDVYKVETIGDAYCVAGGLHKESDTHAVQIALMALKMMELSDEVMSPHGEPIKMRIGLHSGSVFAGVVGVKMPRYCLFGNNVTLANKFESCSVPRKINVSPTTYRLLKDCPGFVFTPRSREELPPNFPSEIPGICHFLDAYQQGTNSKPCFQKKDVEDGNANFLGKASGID
T1 sequence (Q02153 1-619): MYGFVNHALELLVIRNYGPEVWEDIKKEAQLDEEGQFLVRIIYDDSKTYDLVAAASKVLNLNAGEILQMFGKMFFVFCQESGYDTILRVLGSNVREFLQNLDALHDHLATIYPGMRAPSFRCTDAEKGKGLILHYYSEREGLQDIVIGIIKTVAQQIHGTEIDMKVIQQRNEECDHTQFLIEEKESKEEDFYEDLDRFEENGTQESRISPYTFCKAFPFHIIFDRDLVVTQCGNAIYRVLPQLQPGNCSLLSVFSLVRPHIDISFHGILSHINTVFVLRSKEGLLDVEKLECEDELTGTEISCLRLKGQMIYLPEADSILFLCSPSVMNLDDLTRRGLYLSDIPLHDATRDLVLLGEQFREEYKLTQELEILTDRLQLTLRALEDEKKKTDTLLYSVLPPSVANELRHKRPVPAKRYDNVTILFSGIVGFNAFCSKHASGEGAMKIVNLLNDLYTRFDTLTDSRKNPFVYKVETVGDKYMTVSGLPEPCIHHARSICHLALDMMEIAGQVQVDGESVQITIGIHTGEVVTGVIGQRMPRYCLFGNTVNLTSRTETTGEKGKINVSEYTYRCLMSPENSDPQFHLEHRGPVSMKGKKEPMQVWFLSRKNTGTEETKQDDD
Put plainly: Purified human recombinant sGC α1β1 enzyme assay in the presence of DETA-NONOate (cGMP HTRF). The format is biochemical. To be noted: 30 uM DETA NONOate; 50% of maximal response of 30 uM Compound Y; read-out: sGC_Enz_HTRF_a1b1 EC50/IC50 Abs (Norm) (nM) Binned. Here is the method: Purified human recombinant soluble guanylate cyclase enzyme α1β1(h sGC) obtained from Enzo Life Sciences (P/N: ALX-201-177) was used to evaluate the activity of test compounds. The assay reactions contained 0.1 M Tris (pH 8.0), 0.5 mg/mL BSA, 2 mM DTT, 4 mM MgCl2, 30 uM DETA NONOate (Enzo Life Science P/N: ALX-430-014), and 12.5 ng/ml human soluble guanylate cyclase enzyme. […] Guanosine 5′-triphosphate (Sigma-Aldrich P/N: G8877) was added to a final concentration of 300 μM and enzyme reactions were incubated (100 μL, 384-well plate format) at 37° C. for 20 minutes. The controls contained 3% DMSO (low control), or 30 uM of Compound Y (high control). After the 20 minute incubation, the reaction was stopped with the addition of 100 μL of ice cold 20% acetic acid.
cGMP concentrations in all samples were determined using the cGMP HTRF (Cisbio P/N: 62GM2PEC) assay per manufacturer's instructions. A cGMP standard curve was fit using a 4-parameter fit (log(inhibitor) vs. response—variable slope) using GraphPad Prism Software v.6. Samples were diluted appropriately to ensure that values fell within the linear range of the standard curve.
Data were fit using a 4-parameter fit (log(agonist) vs. response—variable slope) using GraphPad Prism Software v.6.

Data set [3] has as its system Guinea pig tracheal smooth muscle. The experiment in a line: Electrical field stimulated guinea pig tracheal smooth muscle (ex vivo) bronchodilation model. The following applies: inhibition of EFS-induced baseline contraction; 95% Cl, 0.78-0.94. Here is the method: It is possible to assess the bronchodilating effects of sGC stimulators by using the system described below. […]
On each experimental day, a guinea pig is killed by exposure to a rising concentration of CO2 and the trachea removed. […] Tissues are washed with Kreb's buffer and stimulated using the previously determined sub-maximal voltage for 1 hour to establish a stable baseline contraction prior to assessment of compound activity.
A cumulative dose response curve (DRC) to each test substance is then performed and changes in smooth muscle contraction measured. The effect of each test substance in each experiment is expressed as a percentage inhibition of the baseline contraction, normalized to the relevant vehicle controls. […] The data from all three experiments are pooled, the DRC plotted, and the test substance potency and efficacy determined.

In the next data set the test system is sickle mice. The following applies: oral, high doses; cited from earlier work.
The next data set has as its system mdx mouse. The following applies: cited from earlier work.
Data set [4] deals with sickle cell disease patients. To be noted: cited from earlier work.
Data set [5] has as its system adult sickle cell disease patients. The following applies: infusions; cited from earlier work.
Data set [6] deals with adult patients with sickle cell disease. The following applies: acute VOE, vs placebo; cited from earlier work.

As for `Nc1nc(-c2nn(Cc3ccccc3F)c3ncccc23)ncc1C1CC1` [BAY 41-2272], in [1], the pulmonary vasodilation result was “dose dependent pulmonary vasodilation”, the “transpulmonary cGMP release” value is on record as “increased” and the “effect on mean arterial pressure” value is recorded as “without significant effect”. In the case of `Nc1nc(-c2nn(Cc3ccccc3F)c3ncccc23)nc(N)c1N1CCOCC1` [BAY 41-8543], in data set [1], the “effect on pulmonary vasodilation induced by iNO” value is listed as “augmented”, the pulmonary vasodilation result was “dose dependent pulmonary vasodilation”, the “transpulmonary cGMP release” value is given as “increased” and the “effect on mean arterial pressure” value is on record as “without significant effect”. Further, the systemic arterial oxygenation entry in data set [1] was “increased”. As for `O=C(O)CCCCN(CCc1ccccc1OCc1ccc(CCc2ccccc2)cc1)Cc1ccc(C(=O)O)cc1` [BAY 58-2667], in data set [1] (inhaled microparticles after ODQ), the “pulmonary vasodilation and transpulmonary cGMP release after treatment with ODQ” value was “greatly enhanced”. Moreover, in [1], the pulmonary vasodilation entry is given as “dose dependent pulmonary vasodilation”, the “transpulmonary cGMP release” value is on record as “increased”, the “effect on mean arterial pressure” value is reported as “without significant effect” and the systemic arterial oxygenation entry is “increased”. As to `O=C(O)CCCCN(CCc1cc(F)ccc1OCc1ccc(-c2ccc(C(F)(F)F)cc2)cc1)Cc1ccc(C(=O)O)cc1` [BAY 60-2770], the overactive bladder result in the data set on obese mice is listed as “ameliorates overactive bladder”. Take `Nc1nc(-c2nn(Cc3ccccc3F)c3ncccc23)ncc1C1CC1` [BAY-2272]: the bladder dysfunction result in the data set on NO-deficient rats is recorded as “protective effects”. For the molecule `COc1cc(-c2ncc(F)c(N3CCn4c(n[nH]c4=O)C3)n2)nn1Cc1ccccc1F` [Compound I-2], in data set [2], the EC50 fell in the range of 1000 to 5000 nM. Turning to `COc1cc(-c2ncc(F)c(N3CCc4cn[nH]c4C3)n2)nn1Cc1ccccc1F` [Compound I-6], in data set [2], the EC50 was 1000 to 5000 nM. Still for that read-out and setting: in the case of `CC(=O)c1cc(-c2ncc(F)c(N3CCn4c(n[nH]c4=O)C3)n2)nn1Cc1ccccc1F` [Compound I-14] it was 1000 to 5000 nM. Same read-out and setting: under `CC(=O)c1cc(-c2ncc(F)c(N3CCc4[nH][nH]c(=O)c4C3)n2)nn1Cc1ccccc1F` [Compound I-16] stands 1000 to 5000 nM. As to `CC(C)[N+]1(C)[C@@H]2CC[C@H]1CC(OC(=O)C(CO)c1ccccc1)C2` (stereo partly drawn) [Ipratropium bromide], the IC50 – broadly, the concentration needed to halve the response being measured – in [3] came out at 0.86 nM.

Consider `N=C(N)NCCC[C@H](N)C(=O)O` [L-arginine], for which the “Gardos channel activity, dense cell formation and hemolysis” value in the data set on sickle mice was “decrease”. As to `O=c1onc2cnc3ccccc3n12` [ODQ, 1H-[1,2,4]oxadiazolo[4,3-a]quinoxalin-1-one], the “effect on pulmonary vasodilation induced by iNO” value in [1] was “markedly reduced”. On to `CCCc1nn(C)c2c(=O)[nH]c(-c3cc(S(=O)(=O)N4CCN(C)CC4)ccc3OCC)nc12` [sildenafil], for which the “muscle ischemia, injury and fatigue after a brief bout of exercise” value in the data set on mdx mouse is recorded as “alleviate muscle ischemia”. For the same molecule, in [4] (Walk-PHaSST multicenter trial, stopped prematurely), the “serious side effects (VOE, headache, visual disturbance)” value is given as “higher frequency of serious side effects”. Further, the “PAP and exercise capacity” value in data set [4] (sickle cell disease patients with severe PHT) is listed as “improvements”. As for `O=NO` [sodium nitrite], the forearm blood flow result in [5] is “enhanced”. As for nitric oxide [inhaled NO], in data set [6], the pain scores result is on record as “significantly reduced”.
